Data: ChEMBL document CHEMBL4334438, “Discovery of novel glycogen synthase kinase-3α inhibitors: Structure-based virtual screening, preliminary SAR and biological evaluation for treatment of acute myeloid leukemia” (Eur J Med Chem, 2019)
Active and inactive are the calls of the source. No cut-off for these calls is given here.

What was measured:
[1] = molecular target: Dual specificity mitogen-activated protein kinase kinase 7 (Homo sapiens) (UniProt O14733); experiment: Inhibition of recombinant human MKK7beta (2 to end residues) assessed as residual activity at 1 uM using inactive JNK1a1 as substrate incubated for 40 mins in presence of [gamma-33ATP by scintillation counting based radiometry assay relative to control
HL-60 [2] = experiment: Antiproliferative activity against human HL60 cells assessed as reduction in viability after 3 days by SRB assay; type: functional, cell-based
NB-4 [3] = experiment: Induction of cell differentiation in human NB4 cells assessed as increase in CD11c-APC positive cells after 6 days by flow cytometry analysis; type: functional, cell-based
[4] = Activation of wnt/beta-catenin signalling pathway in human NB4 cells assessed as stabilization of beta-catenin at 1 to 30 uM after 24 hrs by Western blot analysis; type: cell-based
NB-4 [5] = experiment: Effect on total beta-catenin level in human NB4 cells at 1 to 30 uM after 24 hrs by Western blot analysis; type: ADME, cell-based; settings: nb-4, 24 h
NB-4 [6] = experiment: Induction of monocytic differentiation in human NB4 cells assessed as increase in CD11c-APC positive cells at 30 uM after 6 days by flow cytometry analysis; type: functional, cell-based
[7] = molecular target: AP2-associated protein kinase 1 (Homo sapiens) (UniProt Q2M2I8); experiment: Inhibition of human AAK1 assessed as residual activity at 1 uM using peptide as substrate incubated for 120 mins in presence of [gamma-33ATP] by scintillation counting based radiometry assay relative to control
[8] = molecular target: Cyclin-Y/Cyclin-dependent kinase 16 (Homo sapiens) (UniProt Q00536+Q8ND76); experiment: Inhibition of recombinant full length human CDK16/cyclinY assessed as residual activity at 1 uM using PKSPKARKKL as substrate incubated for 120 mins in presence of [gamma-33ATP] by scintillation counting based radiometry assay relative to control; type: protein-complex assay
[9] = molecular target: CDK17/Cyclin-Y (Homo sapiens) (UniProt Q00537+Q8ND76); experiment: Inhibition of recombinant full length human CDK17/cyclinY assessed as residual activity at 1 uM using PKSPKARKKL as substrate incubated for 120 mins in presence of [gamma-33ATP] by scintillation counting based radiometry assay relative to control; type: protein-complex assay
[10] = molecular target: Serine/threonine-protein kinase DCLK1 (Homo sapiens) (UniProt O15075); experiment: Inhibition of recombinant human DCAMKL1 assessed as residual activity at 1 uM radiometric assay relative to control
[11] = system: Serine/threonine-protein kinase 38 (NDR1); experiment: Inhibition of recombinant human NDR1 assessed as residual activity at 1 uM relative to control
NB-4 [12] = experiment: Induction of monocytic differentiation in human NB4 cells assessed as increase in CD11b-APC-Cy7 positive cells at 30 uM after 6 days by flow cytometry analysis; type: functional, cell-based
HL-60 [13] = experiment: Effect on total beta-catenin level in human HL60 cells at 1 to 30 uM after 24 hrs by Western blot analysis; type: ADME, cell-based; settings: hl-60, 24 h
NB-4 [14] = experiment: Induction of cell differentiation in human NB4 cells assessed as increase in CD11b-APC-Cy7 positive cells after 6 days by flow cytometry analysis; type: functional, cell-based
[15] = molecular target: Serine/threonine-protein kinase LATS1 (Homo sapiens) (UniProt O95835); experiment: Inhibition of human LATS1 assessed as residual activity at 1 uM by radiometric assay relative to control
[16] = molecular target: T1, Glycogen synthase kinase-3 alpha (Homo sapiens, UniProt P49840); experiment: Inhibition of GSK-3alpha phosphorylation at Y279 residue in human HL60 cells after 24 hrs by Western blot analysis; type: cell-based
HL-60 [17] = experiment: Induction of monocytic differentiation in human HL60 cells assessed as increase in CD14-FITC positive cells at 30 uM after 6 days by flow cytometry analysis; type: functional, cell-based
HL-60 [18] = experiment: Induction of cell differentiation in human HL60 cells assessed as increase in CD14-FITC positive cells after 6 days by flow cytometry analysis; type: functional, cell-based
[19] = molecular target: Serine/threonine-protein kinase WNK4 (Homo sapiens) (UniProt Q96J92); experiment: Inhibition of human WNK4 assessed as residual activity at 1 uM using myelin basic protein as substrate measured after 120 mins in presence of [gamma33P]ATP by scintillation counting method relative to control
NB-4 [20] = experiment: Inhibition of colony formation in human NB4 cells preincubated for 72 hrs followed by compound washout and measured after 7 to 10 days; type: functional, cell-based
[21] = molecular target: Serine/threonine-protein kinase MRCK gamma (Homo sapiens) (UniProt Q6DT37); experiment: Inhibition of recombinant human MRCKgamma assessed as residual activity at 1 uM using KKRNRTLTV as substrate measured after 40 mins in presence of [gamma33P]ATP by scintillation counting method relative to control
NB-4 [22] = experiment: Antiproliferative activity against human NB4 cells assessed as reduction in viability after 3 days by SRB assay; type: functional, cell-based
[23] = molecular target: Mitogen-activated protein kinase kinase kinase 21 (Homo sapiens) (UniProt Q5TCX8); experiment: Inhibition of recombinant human MLK4 assessed as residual activity at 1 uM using by radiometry assay relative to control
[24] = Activation of wnt/beta-catenin signalling pathway in human HL60 cells assessed as stabilization of beta-catenin at 1 to 30 uM after 24 hrs by Western blot analysis; type: cell-based
[25] = molecular target: Casein kinase I isoform alpha (Homo sapiens) (UniProt P48729); experiment: Inhibition of recombinant human CK1alpha expressed in Escherichia coli assessed as residual activity at 1 uMu sing CK1 peptide as substrate preincubated for 15 mins followed by substrate addition and measured after 30 mins in presence of [gamma-33ATP] by scintillation counting method relative to control; settings: 1 uM
NB-4 [26] = experiment: Induction of cell death in human NB4 cells at 10 to 30 uM after 6 days by trypan blue assay; type: cell-based; settings: nb-4, 144 h
[27] = molecular target: STE20/SPS1-related proline-alanine-rich protein kinase (Homo sapiens) (UniProt Q9UEW8); experiment: Inhibition of recombinant human STK39 assessed as residual activity at 1 uM in presence of [gamma33P]ATP by scintillation counting based radiometry assay relative to control
[28] = molecular target: BMP-2-inducible protein kinase (Homo sapiens) (UniProt Q9NSY1); experiment: Inhibition of recombinant human BIKe assessed as residual activity at 1 uM using peptide as substrate incubated for 120 mins in presence of [gamma-33ATP] by scintillation counting based radiometry assay relative to control
[29] = molecular target: T1, Glycogen synthase kinase-3 alpha; experiment: Inhibition of GSK-3alpha phosphorylation at Y279 residue in human NB4 cells after 24 hrs by Western blot analysis; type: cell-based
HL-60 [30] = experiment: Induction of cell death in human HL60 cells at 10 to 30 uM after 6 days by trypan blue assay; type: cell-based; settings: hl-60, 144 h
HL-60 [31] = experiment: Inhibition of colony formation in human HL60 cells preincubated for 72 hrs followed by compound washout and measured after 7 to 10 days; type: functional, cell-based
HL-60 [32] = experiment: Induction of monocytic differentiation in human HL60 cells assessed as increase in CD11b-APC-Cy7 positive cells at 30 uM after 6 days by flow cytometry analysis; type: functional, cell-based
[33] = molecular target: Citron Rho-interacting kinase (Homo sapiens) (UniProt O14578); experiment: Inhibition of recombinant human CRIK assessed as residual activity at 1 uM KKLRRTLSVA as substrate incubated 120 mins by scintillation counting method relative to control
Chain of Citron Rho-interacting kinase (Homo sapiens) (O14578 whole entry): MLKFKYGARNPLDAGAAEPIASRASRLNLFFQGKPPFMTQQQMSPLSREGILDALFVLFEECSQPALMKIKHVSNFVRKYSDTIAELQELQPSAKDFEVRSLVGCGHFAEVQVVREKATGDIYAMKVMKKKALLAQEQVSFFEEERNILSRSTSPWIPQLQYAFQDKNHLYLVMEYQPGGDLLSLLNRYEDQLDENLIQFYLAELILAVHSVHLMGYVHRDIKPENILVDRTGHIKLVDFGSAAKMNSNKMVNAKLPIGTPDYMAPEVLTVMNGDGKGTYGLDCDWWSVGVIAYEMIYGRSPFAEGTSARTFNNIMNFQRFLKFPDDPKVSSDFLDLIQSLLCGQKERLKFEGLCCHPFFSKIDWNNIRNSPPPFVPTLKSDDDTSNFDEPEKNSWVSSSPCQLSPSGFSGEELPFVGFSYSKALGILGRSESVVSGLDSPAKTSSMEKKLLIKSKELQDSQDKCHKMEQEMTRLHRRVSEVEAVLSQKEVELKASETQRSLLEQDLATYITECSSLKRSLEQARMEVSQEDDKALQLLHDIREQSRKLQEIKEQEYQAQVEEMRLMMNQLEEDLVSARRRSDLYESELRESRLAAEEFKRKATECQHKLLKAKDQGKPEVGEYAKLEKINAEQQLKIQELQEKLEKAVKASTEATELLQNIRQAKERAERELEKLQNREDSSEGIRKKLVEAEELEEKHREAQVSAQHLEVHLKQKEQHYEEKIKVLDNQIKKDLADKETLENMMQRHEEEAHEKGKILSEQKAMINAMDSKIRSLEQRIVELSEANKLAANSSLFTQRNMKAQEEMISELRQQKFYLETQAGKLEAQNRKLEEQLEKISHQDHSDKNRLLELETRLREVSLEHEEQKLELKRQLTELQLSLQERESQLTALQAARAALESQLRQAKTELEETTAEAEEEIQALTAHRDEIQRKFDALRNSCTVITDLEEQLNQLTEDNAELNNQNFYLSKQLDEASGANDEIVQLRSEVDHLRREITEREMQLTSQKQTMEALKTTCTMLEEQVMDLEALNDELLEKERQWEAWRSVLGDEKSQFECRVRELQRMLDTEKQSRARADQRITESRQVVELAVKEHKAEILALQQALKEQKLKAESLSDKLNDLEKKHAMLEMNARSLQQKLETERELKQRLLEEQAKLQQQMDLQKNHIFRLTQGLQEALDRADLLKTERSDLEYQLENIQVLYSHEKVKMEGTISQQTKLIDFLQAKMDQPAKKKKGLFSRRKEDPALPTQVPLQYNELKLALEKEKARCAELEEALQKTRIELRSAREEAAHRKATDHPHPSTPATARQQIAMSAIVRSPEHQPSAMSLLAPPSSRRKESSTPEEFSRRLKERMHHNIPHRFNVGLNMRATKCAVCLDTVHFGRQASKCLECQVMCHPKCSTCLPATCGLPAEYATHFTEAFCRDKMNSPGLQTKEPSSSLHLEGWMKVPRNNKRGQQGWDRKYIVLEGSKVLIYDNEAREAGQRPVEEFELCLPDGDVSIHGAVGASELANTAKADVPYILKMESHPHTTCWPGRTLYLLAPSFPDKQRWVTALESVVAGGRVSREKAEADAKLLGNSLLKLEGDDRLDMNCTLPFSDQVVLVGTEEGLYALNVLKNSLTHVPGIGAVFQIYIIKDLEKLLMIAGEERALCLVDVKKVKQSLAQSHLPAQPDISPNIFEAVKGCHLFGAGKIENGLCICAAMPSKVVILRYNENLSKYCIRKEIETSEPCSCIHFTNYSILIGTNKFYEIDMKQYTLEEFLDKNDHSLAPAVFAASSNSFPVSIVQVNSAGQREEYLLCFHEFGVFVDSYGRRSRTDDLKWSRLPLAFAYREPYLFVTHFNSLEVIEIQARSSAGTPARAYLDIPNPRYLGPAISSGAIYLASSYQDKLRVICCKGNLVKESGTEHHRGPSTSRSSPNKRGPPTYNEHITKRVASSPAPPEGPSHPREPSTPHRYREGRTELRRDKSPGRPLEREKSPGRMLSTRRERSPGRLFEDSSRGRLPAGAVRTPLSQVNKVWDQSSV

T1 sequence (P49840 2-483 limits assumed): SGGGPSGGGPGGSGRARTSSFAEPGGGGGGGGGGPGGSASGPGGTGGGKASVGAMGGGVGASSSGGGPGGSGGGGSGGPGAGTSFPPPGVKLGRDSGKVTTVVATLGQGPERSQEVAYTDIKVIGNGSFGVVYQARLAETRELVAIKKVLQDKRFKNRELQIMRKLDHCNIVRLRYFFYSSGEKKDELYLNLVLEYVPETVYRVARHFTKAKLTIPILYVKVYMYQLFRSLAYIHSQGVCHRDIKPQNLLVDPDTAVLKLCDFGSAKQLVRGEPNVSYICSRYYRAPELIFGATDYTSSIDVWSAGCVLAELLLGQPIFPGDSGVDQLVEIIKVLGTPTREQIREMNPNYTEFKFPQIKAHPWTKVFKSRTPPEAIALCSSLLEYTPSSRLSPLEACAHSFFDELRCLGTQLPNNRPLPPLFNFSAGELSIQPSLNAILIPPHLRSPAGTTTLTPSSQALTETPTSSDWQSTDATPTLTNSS
Chain of Serine/threonine-protein kinase MRCK gamma (Homo sapiens) (Q6DT37 whole entry): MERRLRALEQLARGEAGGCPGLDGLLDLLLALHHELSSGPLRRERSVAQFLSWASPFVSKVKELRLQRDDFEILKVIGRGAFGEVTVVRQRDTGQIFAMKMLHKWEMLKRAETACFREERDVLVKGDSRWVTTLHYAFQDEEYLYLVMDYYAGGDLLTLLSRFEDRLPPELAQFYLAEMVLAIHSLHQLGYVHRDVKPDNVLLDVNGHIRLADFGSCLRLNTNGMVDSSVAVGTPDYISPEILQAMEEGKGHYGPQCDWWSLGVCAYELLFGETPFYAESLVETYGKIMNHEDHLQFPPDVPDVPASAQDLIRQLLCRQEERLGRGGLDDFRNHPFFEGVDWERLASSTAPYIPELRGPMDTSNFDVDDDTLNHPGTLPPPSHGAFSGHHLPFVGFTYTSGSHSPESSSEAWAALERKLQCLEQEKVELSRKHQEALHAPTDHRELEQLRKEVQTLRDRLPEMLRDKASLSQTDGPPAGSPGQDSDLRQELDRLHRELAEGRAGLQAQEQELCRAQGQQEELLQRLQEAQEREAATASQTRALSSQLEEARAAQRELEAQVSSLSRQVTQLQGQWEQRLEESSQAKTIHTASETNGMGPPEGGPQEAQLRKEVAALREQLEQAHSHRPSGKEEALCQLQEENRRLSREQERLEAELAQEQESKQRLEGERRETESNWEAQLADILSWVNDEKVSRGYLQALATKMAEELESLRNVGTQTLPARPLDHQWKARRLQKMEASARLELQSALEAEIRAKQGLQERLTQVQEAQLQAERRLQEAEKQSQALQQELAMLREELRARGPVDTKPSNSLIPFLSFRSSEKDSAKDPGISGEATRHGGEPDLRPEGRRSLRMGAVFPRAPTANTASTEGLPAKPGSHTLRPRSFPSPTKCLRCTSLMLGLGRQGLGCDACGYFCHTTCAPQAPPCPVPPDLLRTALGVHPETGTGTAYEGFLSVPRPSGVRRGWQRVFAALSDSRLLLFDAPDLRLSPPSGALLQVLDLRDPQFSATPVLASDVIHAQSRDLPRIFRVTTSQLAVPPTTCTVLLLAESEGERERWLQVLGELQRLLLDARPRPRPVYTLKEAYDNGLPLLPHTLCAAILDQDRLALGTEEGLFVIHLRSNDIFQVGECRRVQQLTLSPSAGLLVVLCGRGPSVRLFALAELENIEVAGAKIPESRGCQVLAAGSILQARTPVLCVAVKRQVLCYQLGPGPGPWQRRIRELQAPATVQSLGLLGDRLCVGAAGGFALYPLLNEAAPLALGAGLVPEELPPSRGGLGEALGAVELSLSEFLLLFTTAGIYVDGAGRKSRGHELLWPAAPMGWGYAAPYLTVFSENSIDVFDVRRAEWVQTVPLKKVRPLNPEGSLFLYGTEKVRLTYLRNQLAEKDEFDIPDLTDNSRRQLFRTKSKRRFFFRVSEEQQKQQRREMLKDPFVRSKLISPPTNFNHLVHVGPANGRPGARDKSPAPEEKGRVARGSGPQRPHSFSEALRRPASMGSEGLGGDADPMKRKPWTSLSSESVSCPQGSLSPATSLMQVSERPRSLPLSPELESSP
Chain of AP2-associated protein kinase 1 (Homo sapiens) (Q2M2I8 whole entry, looked up): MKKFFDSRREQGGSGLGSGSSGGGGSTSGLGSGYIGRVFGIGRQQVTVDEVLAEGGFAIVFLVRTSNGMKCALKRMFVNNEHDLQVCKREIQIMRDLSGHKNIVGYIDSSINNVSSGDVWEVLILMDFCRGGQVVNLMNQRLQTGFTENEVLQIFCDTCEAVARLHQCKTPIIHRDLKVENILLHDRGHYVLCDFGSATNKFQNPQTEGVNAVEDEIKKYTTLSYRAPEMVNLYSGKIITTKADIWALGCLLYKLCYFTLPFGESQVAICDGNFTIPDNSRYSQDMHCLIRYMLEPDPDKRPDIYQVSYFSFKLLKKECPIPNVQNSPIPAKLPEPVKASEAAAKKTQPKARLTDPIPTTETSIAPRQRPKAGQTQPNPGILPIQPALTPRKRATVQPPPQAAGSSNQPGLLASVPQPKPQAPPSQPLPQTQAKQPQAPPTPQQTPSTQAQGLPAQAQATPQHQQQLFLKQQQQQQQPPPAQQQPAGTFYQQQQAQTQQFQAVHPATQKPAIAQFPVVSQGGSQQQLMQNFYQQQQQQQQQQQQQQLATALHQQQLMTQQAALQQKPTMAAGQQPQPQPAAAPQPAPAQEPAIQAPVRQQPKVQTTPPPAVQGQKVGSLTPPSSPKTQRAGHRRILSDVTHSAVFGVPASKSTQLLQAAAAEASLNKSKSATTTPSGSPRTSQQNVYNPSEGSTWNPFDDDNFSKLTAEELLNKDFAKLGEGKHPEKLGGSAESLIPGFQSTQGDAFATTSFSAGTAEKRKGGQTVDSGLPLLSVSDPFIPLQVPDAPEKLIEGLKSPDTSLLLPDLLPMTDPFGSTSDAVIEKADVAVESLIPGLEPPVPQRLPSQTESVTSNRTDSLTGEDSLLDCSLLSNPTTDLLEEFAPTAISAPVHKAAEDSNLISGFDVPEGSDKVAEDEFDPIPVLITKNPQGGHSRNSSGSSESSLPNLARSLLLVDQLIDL

SMILES: N=C1NC(=O)/C(=C\c2ccc(-c3cccc([N+](=O)[O-])c3)o2)S1
- Activity [1]: 93%

SMILES: C=CCOC(=O)c1cc(-c2ccc(/C=C3/NC(=S)NC3=O)o2)ccc1Cl
- Activity (HL-60 [2]): Dose-dependent effect
- Activity (NB-4 [3]): Dose-dependent effect
- Activity [4]: Not Active
- Activity (NB-4 [5]): Non-Toxic
- Activity (NB-4 [6]): Active
- Activity [7]: 101%
- Activity [8]: 82%
- Activity [9]: 72%
- Activity [10]: 85%
- Activity [11]: 99%
- Activity (NB-4 [12]): Active
- Activity (HL-60 [13]): Non-Toxic
- Activity (NB-4 [14]): Dose-dependent effect
- Activity [15]: 114%
- inhibition [16]: Dose-dependent effect
- Activity (HL-60 [17]): Active
- Activity (HL-60 [18]): Dose-dependent effect
- Activity [19]: 93%
- inhibition (NB-4 [20]): Dose-dependent effect
- Activity [21]: 110%
- Activity (NB-4 [22]): Dose-dependent effect
- Activity [23]: 95%
- Activity [24]: Not Active
- Activity [25]: 96%
- Activity (NB-4 [26]): Non-Toxic
- Activity [27]: 103%
- Activity [28]: 111%
- inhibition [29]: Dose-dependent effect
- Activity (HL-60 [30]): Non-Toxic
- inhibition (HL-60 [31]): Dose-dependent effect
- Activity (HL-60 [32]): Active
- Activity [33]: 95%
